Measurements from patent US7935702B2, “Substituted biaryl quinolin-4-ylamine analogues” (Neurogen Corporation, priority 2004, dated 2011).

Biological target: T1, human capsaicin receptor (Homo sapiens, UniProt Q8NER1)
T1 construct: expressed in transfected cells
Test: Calcium mobilization assay, determination of antagonist activity (Example 6)
Format: cell-based
Settings: Table I; IC50 determined as described in Example 6; read-out: IC50
Experimental: A cDNA encoding full length human capsaicin receptor (SEQ ID NO:1, 2 or 3 of U.S. Pat. No. 6,482,611) is subcloned in the plasmid pBK-CMV (Stratagene, La Jolla, Calif.) for recombinant expression in mammalian cells.
Human embryonic kidney (HEK293) cells are transfected with the pBK-CMV expression construct encoding the full length human capsaicin receptor using standard methods. The transfected cells are selected for two weeks in media containing G418 (400 μg/ml) to obtain a pool of stably transfected cells. Independent clones are isolated from this pool by limiting dilution to obtain clonal stable cell lines for use in subsequent experiments.
This Example illustrates representative calcium mobilization assays for use in evaluating test compounds for agonist and antagonist activity.
Cells transfected with expression plasmids (as described in Example 4) and thereby expressing human capsaicin receptor are seeded and grown to 70-90% confluency in FALCON black-walled, clear-bottomed 96-well plates (#3904, BECTON-DICKINSON, Franklin Lakes, N.J.). The culture medium is emptied from the 96 well plates and FLUO-3 AM calcium sensitive dye (Molecular Probes, Eugene, Oreg.) is added to each well (dye solution: 1 mg FLUO-3 AM, 440 μL DMSO and 440 μl 20% pluronic acid in DMSO, diluted 1:250 in Krebs-Ringer HEPES (KRH) buffer (25 mM HEPES, 5 mM KCl, 0.96 mM NaH2PO4, 1 mM MgSO4, 2 mM CaCl2, 5 mM glucose, 1 mM probenecid, pH 7.4), 50 μl diluted solution per well). Plates are covered with aluminum foil and incubated at 37° C. for 1-2 hours in an environment containing 5% CO2. After the incubation, the dye is emptied from the plates, and the cells are washed once with KRH buffer, and resuspended in KRH buffer.
To measure the ability of a test compound to agonize or antagonize a calcium mobilization response in cells expressing capsaicin receptors to capsaicin or other vanilloid agonist, the EC50 of the agonist capsaicin is first determined. An additional 20 μl of KRH buffer and 1 μl DMSO is added to each well of cells, prepared as described above. 100 μl capsaicin in KRH buffer is automatically transferred by the FLIPR instrument to each well. Capsaicin-induced calcium mobilization is monitored using either FLUOROSKAN ASCENT (Labsystems; Franklin, Mass.) or FLIPR (fluorometric imaging plate reader system; Molecular Devices, Sunnyvale, Calif.) instruments. Data obtained between 30 and 60 seconds after agonist application are used to generate an 8-point concentration response curve, with final capsaicin concentrations of 1 nM to 3 μM. KALEIDAGRAPH software (Synergy Software, Reading, Pa.) is used to fit the data to the equation: y=a*(1/(1+(b/x)^c)) to determine the 50% excitatory concentration (EC50) for the response. In this equation, y is the maximum fluorescence signal, x is the concentration of the agonist or antagonist (in this case, capsaicin), a is the Emax, b corresponds to the EC50 value and c is the Hill coefficient. Determination of Agonist Activity
Test compounds are dissolved in DMSO, diluted in 20 μl KRH buffer so that the final concentration of test compounds in the assay well is between 1 μM and 5 μM, and added to cells prepared as described above. The 96 well plates containing prepared cells and test compounds are incubated in the dark, at room temperature for 0.5 to 6 hours. It is important that the incubation not continue beyond 6 hours. Just prior to determining the fluorescence response, 100 μl capsaicin in KRH buffer at twice the EC50 concentration determined as described above is automatically added by the FLIPR instrument to each well of the 96 well plate for a final sample volume of 200 μl and a final capsaicin concentration equal to the EC50. The final concentration of test compounds in the assay wells is between 1 μM and 5 μM. […]

T1 sequence (Q8NER1 whole entry): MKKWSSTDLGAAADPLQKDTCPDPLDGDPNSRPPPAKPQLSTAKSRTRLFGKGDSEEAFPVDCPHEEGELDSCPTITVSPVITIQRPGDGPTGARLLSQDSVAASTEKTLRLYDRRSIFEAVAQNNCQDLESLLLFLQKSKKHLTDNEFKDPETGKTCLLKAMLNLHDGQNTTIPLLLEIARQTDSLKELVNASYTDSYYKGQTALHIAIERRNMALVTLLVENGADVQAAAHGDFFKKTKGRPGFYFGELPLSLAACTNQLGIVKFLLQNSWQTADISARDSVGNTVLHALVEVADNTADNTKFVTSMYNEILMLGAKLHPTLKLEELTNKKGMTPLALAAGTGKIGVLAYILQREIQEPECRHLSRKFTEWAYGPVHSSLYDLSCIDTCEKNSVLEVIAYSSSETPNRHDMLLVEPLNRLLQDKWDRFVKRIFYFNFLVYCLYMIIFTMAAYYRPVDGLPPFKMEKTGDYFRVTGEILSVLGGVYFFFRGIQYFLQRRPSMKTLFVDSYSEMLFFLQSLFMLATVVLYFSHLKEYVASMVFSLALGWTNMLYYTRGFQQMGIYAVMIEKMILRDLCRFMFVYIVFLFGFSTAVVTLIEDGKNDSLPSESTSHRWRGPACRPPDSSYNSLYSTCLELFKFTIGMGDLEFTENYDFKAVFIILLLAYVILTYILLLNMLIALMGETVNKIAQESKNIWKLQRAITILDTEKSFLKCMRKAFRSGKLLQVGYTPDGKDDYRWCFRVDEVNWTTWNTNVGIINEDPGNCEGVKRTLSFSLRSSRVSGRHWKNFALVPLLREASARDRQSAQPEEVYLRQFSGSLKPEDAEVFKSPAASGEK

IC50, < 1000 nM:
Oc1ccc(C(F)(F)F)c(-c2ccc3c(Nc4ccc(C(F)(F)F)cn4)ccnc3n2)n1 [compound 21, 5-Trifluoromethyl-6-[5-(5-trifluoromethyl-pyridin-2-ylamino)-[1,8]naphthyridin-2-yl]-pyridin-2-ol]
O=C(O)c1cnc(-c2ccc3c(Nc4ccc(C(F)(F)F)cn4)ccnc3n2)c(C(F)(F)F)c1 [compound 22, 5-Trifluoromethyl-6-[5-(5-trifluoromethyl-pyridin-2-ylamino)-[1,8]naphthyridin-2-yl]-nicotinic acid]
FC(F)(F)c1ccc(Nc2ccnc3nc(-c4nc(Cl)ccc4C(F)(F)F)ccc23)nc1 [compound 23, [7-(6-Chloro-3-trifluoromethyl-pyridin-2-yl)-[1,8]naphthyridin-4-yl]-(5-trifluoromethyl-pyridin-2-yl)-amine]
N#Cc1ccc(C(F)(F)F)c(-c2ccc3c(Nc4ccc(C(F)(F)F)cn4)ccnc3n2)n1 [compound 24, 5-Trifluoromethyl-6-[5-(5-trifluoromethyl-pyridin-2-ylamino)-[1,8]naphthyridin-2-yl]-pyridine-2-carbonitrile]
NC(=O)c1ccc(C(F)(F)F)c(-c2ccc3c(Nc4ccc(C(F)(F)F)cn4)ccnc3n2)n1 [compound 25, 5-Trifluoromethyl-6-[5-(5-trifluoromethyl-pyridin-2-ylamino)-[1,8]naphthyridin-2-yl]-pyridine-2-carboxylic acid amide]
O=C(O)c1ccc(C(F)(F)F)c(-c2ccc3c(Nc4ccc(C(F)(F)F)cn4)ccnc3n2)n1 [compound 26, 5-Trifluoromethyl-6-[5-(5-trifluoromethyl-pyridin-2-ylamino)-[1,8]naphthyridin-2-yl]-pyridine-2-carboxylic acid]
Cc1ccc(C(F)(F)F)c(-c2ccc3c(Nc4ccc(C(F)(F)F)cn4)ccnc3n2)n1 [compound 28, [7-(6-Methyl-3-trifluoromethyl-pyridin-2-yl)-[1,8]naphthyridin-4-yl]-(5-trifluoromethyl-pyridin-2-yl)-amine]
CC(=O)c1ccc(C(F)(F)F)c(-c2ccc3c(Nc4ccc(C(F)(F)F)cn4)ccnc3n2)n1 [compound 29, 1-{5-Trifluoromethyl-6-[5-(5-trifluoromethyl-pyridin-2-ylamino)-[1,8]naphthyridin-2-yl]-pyridin-2-yl}-ethanone]
FC(F)(F)c1ccc(Nc2ccnc3nc(-c4ncc(Br)cc4C(F)(F)F)cnc23)nc1 [compound 31, [3-(5-Bromo-3-trifluoromethyl-pyridin-2-yl)-pyrido[2,3-b]pyrazin-8-yl]-(5-trifluoromethyl-pyridin-2-yl)-amine]
N#Cc1cnc(-c2cnc3c(Nc4ccc(C(F)(F)F)cn4)ccnc3n2)c(C(F)(F)F)c1 [compound 32, 5-Trifluoromethyl-6-[8-(5-trifluoromethyl-pyridin-2-ylamino)-pyrido[2,3-b]pyrazin-3-yl]-nicotinonitrile]
O=C(O)c1cnc(-c2cnc3c(Nc4ccc(C(F)(F)F)cn4)ccnc3n2)c(C(F)(F)F)c1 [compound 33, 5-(trifluoromethyl)-6-(8-{[5-(trifluoromethyl)-2-pyridinyl]amino}pyrido[2,3-b]pyrazin-3-yl)nicotinic acid]
NC(=O)c1cnc(-c2cnc3c(Nc4cnc(C(F)(F)F)cn4)ccnc3n2)c(C(F)(F)F)c1 [compound 34, 5-(trifluoromethyl)-6-(8-{[5-(trifluoromethyl)pyrazin-2-yl]amino}pyrido[2,3-b]pyrazin-3-yl)nicotinamide]
NC(=O)c1cnc(-c2cnc3c(Nc4cnc5ccccc5n4)ccnc3n2)c(C(F)(F)F)c1 [compound 35, 6-[8-(quinoxalin-2-ylamino)pyrido[2,3-b]pyrazin-3-yl]-5-(trifluoromethyl)nicotinamide]
N#Cc1ccc(-c2cnc3c(Nc4ccc(C(F)(F)F)cn4)ccnc3n2)c(C(F)(F)F)c1 [compound 36, 3-(trifluoromethyl)-4-(8-{[5-(trifluoromethyl)pyridin-2-yl]amino}pyrido[2,3-b]pyrazin-3-yl)benzonitrile]
NC(=O)c1ccc(-c2cnc3c(Nc4ccc(C(F)(F)F)cn4)ccnc3n2)c(C(F)(F)F)c1 [compound 37, 3-(trifluoromethyl)-4-(8-{[5-(trifluoromethyl)pyridin-2-yl]amino}pyrido[2,3-b]pyrazin-3-yl)benzamide]
O=C(O)c1ccc(-c2cnc3c(Nc4ccc(C(F)(F)F)cn4)ccnc3n2)c(C(F)(F)F)c1 [compound 38, 3-(trifluoromethyl)-4-(8-{[5-(trifluoromethyl)pyridin-2-yl]amino}pyrido[2,3-b]pyrazin-3-yl)benzoic acid]
CS(=O)(=O)c1ccc(-c2cnc3c(Nc4ccc(C(F)(F)F)cn4)ccnc3n2)c(C(F)(F)F)c1 [compound 41, 3-[4-(methylsulfonyl)-2-(trifluoromethyl)phenyl]-N-[5-(trifluoromethyl)pyridin-2-yl]pyrido[2,3-b]pyrazin-8-amine]
CCOc1nc(Nc2ccnc3nc(-c4ccc(C#N)cc4C(F)(F)F)cnc23)ccc1C(F)(F)F [compound 42, 4-(8-{[6-ethoxy-5-(trifluoromethyl)pyridin-2-yl]amino}pyrido[2,3-b]pyrazin-3-yl)-3-(trifluoromethyl)benzonitrile]
CCOc1nc(Nc2ccnc3nc(-c4ccc(C(N)=O)cc4C(F)(F)F)cnc23)ccc1C(F)(F)F [compound 43, 4-(8-{[6-ethoxy-5-(trifluoromethyl)pyridin-2-yl]amino}pyrido[2,3-b]pyrazin-3-yl)-3-(trifluoromethyl)benzamide]
CCOc1nc(Nc2ccnc3nc(-c4ccc(C(=O)O)cc4C(F)(F)F)cnc23)ccc1C(F)(F)F [compound 44, 4-(8-{[6-ethoxy-5-(trifluoromethyl)pyridin-2-yl]amino}pyrido[2,3-b]pyrazin-3-yl)-3-(trifluoromethyl)benzoic acid]
CCOc1nc(Nc2ccnc3nc(-c4ncc(C(N)=O)cc4C(F)(F)F)cnc23)ccc1C(F)(F)F [compound 48, 6-(8-{[6-ethoxy-5-(trifluoromethyl)pyridin-2-yl]amino}pyrido[2,3-b]pyrazin-3-yl)-5-(trifluoromethyl)nicotinamide]
FC(F)(F)c1ccc(Nc2ccnc3nc(-c4nnc(NCCN5CCCCC5)cc4C(F)(F)F)cnc23)nc1 [compound 53, 3-{6-[(2-piperidin-1-ylethyl)amino]-4-(trifluoromethyl)pyridazin-3-yl}-N-[5-(trifluoromethyl)-pyridin-2-yl]pyrido[2,3-b]pyrazin-8-amine]
CC(C)N(CCNc1cc(C(F)(F)F)c(-c2cnc3c(Nc4ccc(C(F)(F)F)cn4)ccnc3n2)nn1)C(C)C [compound 66, N,N-diisopropyl-N′-[5-(trifluoromethyl)-6-(8-{[5-(trifluoromethyl)pyridin-2-yl]amino}pyrido[2,3-b]pyrazin-3-yl)pyridazin-3-yl]ethane-1,2-diamine]
CCN(CC)CCCCNc1cc(C(F)(F)F)c(-c2cnc3c(Nc4ccc(C(F)(F)F)cn4)ccnc3n2)nn1 [compound 69, N,N-diethyl-N′-[5-(trifluoromethyl)-6-(8-{[5-(trifluoromethyl)pyridin-2-yl]amino}pyrido[2,3-b]pyrazin-3-yl)pyridazin-3-yl]butane-1,4-diamine]

Same assay, conditions: cells expressing human capsaicin receptor; capsaicin at EC50; read-out: IC50 determined as described in Example 6

IC50, < 1000 nM:
FC(F)(F)c1ccc(Nc2ccnc3nc(-c4nnc(NCc5cccnc5)cc4C(F)(F)F)cnc23)nc1 [Compound 20]
